Experimental data: BindingDB's records for doi:10.1021/acs.jmedchem.5b02042 (University of South Florida, 2016)

Molecular target: Stromal cell-derived factor 1 (Homo sapiens, UniProt P48061)
Assay: Binding affinity to His6-SUMO fusion tagged wild type human [U-15N]CXCL12 expressed in Escherichia coli by 2D 1H-15N HMQC NMR spectroscopy

Stromal cell-derived factor 1, sequence (P48061 whole entry, the tested form may be a part): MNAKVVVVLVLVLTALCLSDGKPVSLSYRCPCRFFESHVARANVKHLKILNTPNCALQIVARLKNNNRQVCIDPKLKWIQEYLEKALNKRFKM

Kd	Structure (SMILES)
1100 µM	CCCOc1ccc(C(Nc2ccc(F)cc2)P(=O)(O)O)cc1 (configuration not stated)
4100 µM	O=C(O)CC1c2ccccc2CCN1C(=O)Nc1cccc(F)c1 (configuration not stated)
